The source of these data is PubChem BioAssay AID651889 (Broad Institute, 2012).

The source made the active and inactive calls.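 Rule for the calls: active = IC50 under 25 times the IC50 of the reference antimalarial drug in the parasite growth test; inactive = the rest.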

This test concerns P. falciparum NF54 in erythrocytes, 3H-hypoxanthine incorporation, 72 h. The test is described as follows: P. falciparum blood-stage growth inhibition, dose response, NF54 strain, plate reader, dry powder (AID 651889).

As for `C[C@@H]1CN([C@@H](C)CO)C(=O)c2cccc(NC(=O)c3ccncc3)c2O[C@H]1CN(C)Cc1ccc(Oc2ccccc2)cc1`, the IC50 (as a rule, the concentration that gives 50% inhibition) is 580 nM (inactive).
